Among the data in patent publication US20060252807A1, “Novel ortho-terphenyl inhibitors of p38 kinase and methods of treating inflammatory disorders” (Kalypsys, Inc., priority 2005, published 2006) are IC50 values, retold here.

Structures are written as SMILES.

T1 sequence (Q16539 whole entry): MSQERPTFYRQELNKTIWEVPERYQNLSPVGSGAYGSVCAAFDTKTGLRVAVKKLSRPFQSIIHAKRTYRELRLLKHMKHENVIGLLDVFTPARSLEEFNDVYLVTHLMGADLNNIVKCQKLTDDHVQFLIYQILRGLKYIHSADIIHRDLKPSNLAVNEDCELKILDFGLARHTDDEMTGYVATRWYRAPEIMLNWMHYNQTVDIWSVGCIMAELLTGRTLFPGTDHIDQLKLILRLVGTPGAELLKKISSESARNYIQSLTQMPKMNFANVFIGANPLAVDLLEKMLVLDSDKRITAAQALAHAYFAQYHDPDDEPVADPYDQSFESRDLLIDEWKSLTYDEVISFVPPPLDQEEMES

One assay concerns the target T1, active p38 alpha enzyme (Upstate Biotechnology) (Homo sapiens, UniProt Q16539).
T1 construct: purchased Upstate Biotechnology
The assay is described as follows: p38α biochemical assay (ATP turnover, luminescent detection, Cambrex PKlight). Particulars: p38α biochemical assay, Table 1 Biological Activity. An outline of the steps: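 Compounds in DMSO are added to active p38 alpha with MapkapK2 whole protein and ATP at 1.4 uM final. Reactions then run for 2 hours at 30C. A luminescent reagent is added last to quantify total ATP consumed.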
With `CC(C)NC(=O)c1csc(-c2oc(CN3CCN(C(=O)c4ccc(-c5ccc(O)cc5)cc4)CC3)nc2-c2ccc(F)cc2)n1` [Example 528], the IC50 was at most 1 µM.

Turning to `CC(C)NC(=O)c1csc(-c2oc(CNC(=O)c3cc4ccccc4s3)nc2-c2ccc(F)cc2)n1` [Example 207], the IC50 was at most 1 µM.

Consider `CC(C)NC(=O)n1ccc(-c2c(-c3ccc(F)cc3)noc2CN(C)C)n1` [Example 25, 3-|5-Dimethylaminomethyl-3-(4-fluoro-phenyl)-isoxazol-4-yl|-pyrazole-1-carboxylic acid isopropylamide], for which the concentration for half-maximal inhibition (IC50) is at most 1 µM.

The compound `Cc1[nH]nc(-c2ccc(F)cc2)c1-c1nc(C(=O)NCc2ccc3c(c2)OCO3)cs1` [Example 74, 2-|3-(4-Fluoro-phenyl)-5-methyl-1H-pyrazol-4-yl|-thiazole-4-carboxylic acid (benzo|1,3|dioxol-5-yl methyl)-amide] gave an IC50 of at most 1 µM.

With `CCCCOc1ccc(C(=O)N2CCN(Cc3nc(-c4ccc(F)cc4)c(-c4nc(C(=O)NC(C)C)cs4)o3)CC2)cc1` [Example 500], the IC50 was at most 1 µM.

Regarding `CCc1ccc(C(=O)NCc2onc(-c3ccc(F)cc3)c2-c2nc(C(=O)NC(C)C)cs2)cc1` [Example 615], the IC50 was over 1 µM.

For the compound `CC(C)NC(=O)c1csc(-c2oc(CN3CCN(C(=O)c4ccc(Br)cc4)CC3)nc2-c2ccc(F)cc2)n1` [Example 506], the half-maximal inhibitory concentration (IC50) was over 1 µM.

In turn, `CC(C)NC(=O)c1csc(-c2oc(CN3CCN(C(=O)c4cc5ccccc5cc4O)CC3)nc2-c2ccc(F)cc2)n1` [Example 481] came in with a 50% inhibitory concentration (IC50) of over 1 µM.

`CC(C)NC(=O)c1csc(-c2c(-c3ccc(F)cc3)noc2CNC(=O)c2ccccc2Cc2ccccc2)n1` [Example 762] had a half-maximal inhibitory concentration (IC50) of over 1 µM.

The same assay, now with this note: p38α kinase; Table 1 Biological Activity.
In the case of `CC(C)NC(=O)c1csc(-c2c(-c3ccc(F)cc3)n[nH]c2C2CCN(C(=O)c3cnc[nH]3)CC2)n1` [Example 819], the IC50 was over 1 µM.

Regarding `CC(C)NC(=O)c1csc(-c2c(-c3ccc(F)cc3)n[nH]c2C2CCN(C(=O)c3cc(F)c(Cl)cc3F)CC2)n1` [Example 973], the IC50 was over 1 µM.

Regarding `CC(C)NC(=O)c1csc(-c2oc(CNCc3cc(F)cc(F)c3)nc2-c2ccc(F)cc2)n1` [Example 1136], the half-maximal inhibitory concentration (IC50) was over 1 µM.

For `CC(=O)c1cccc(C(=O)N2CCC(c3[nH]nc(-c4ccc(F)cc4)c3-c3nc(C(=O)NC(C)C)cs3)CC2)c1` [Example 883], the IC50 is over 1 µM.

Regarding `CC(C)NC(=O)c1csc(-c2c(-c3ccc(F)cc3)n[nH]c2C2CCN(C(=O)C(O)CCl)CC2)n1` (stereo not drawn) [Example 829], the IC50 was at most 1 µM.

For the compound `Cc1ccc(S(=O)(=O)NCCNCc2nc(-c3ccc(F)cc3)c(-c3nc(C(=O)NC(C)C)cs3)o2)cc1` [Example 1180], the IC50 was at most 1 µM.

`CC(C)NC(=O)c1csc(-c2c(-c3ccc(F)cc3)noc2CN(C)CCc2ccccn2)n1` [Example 1553]: the IC50 is over 1 µM.

In turn, `CC(C)NC(=O)c1csc(-c2c(-c3ccc(F)cc3)noc2CNCc2ccccc2OC(F)(F)F)n1` [Example 1502] displayed a half-maximal inhibitory concentration (IC50) of over 1 µM.

Consider `O=C(NC1CCCC1)c1csc(-c2c(-c3ccc(F)cc3)n[nH]c2C2CCNCC2)n1` [Example 2044], for which the half-maximal inhibitory concentration (IC50) was at most 1 µM.

`Cc1ccc([C@@H](C)NCc2nc(-c3ccc(F)cc3)c(-c3nc(C(=O)NC(C)C)cs3)o2)cc1` [Example 1116] returned an IC50 of over 1 µM.

The compound `CC(C)NC(=O)c1csc(-c2c(-c3ccc(F)cc3)n[nH]c2C2CCN(C(=O)C(C)c3ccc(-c4ccccc4)c(F)c3)CC2)n1` (stereo not drawn) [Example 1038] registered a half-maximal inhibitory concentration (IC50) of over 1 µM.

The compound `COc1ccccc1NCc1onc(-c2ccc(F)cc2)c1-c1nc(C(=O)NC(C)C)cs1` [Example 1649] gave an IC50 of over 1 µM.

In turn, `CC(C)NC(=O)c1csc(-c2oc(CNCc3cccs3)nc2-c2ccc(F)cc2)n1` [Example 1088] registered an IC50 of over 1 µM.

With `CCN(Cc1ccccc1)Cc1nc(-c2ccc(F)cc2)c(-c2nc(C(=O)NC(C)C)cs2)o1` [Example 1225], the IC50 was over 1 µM.

As for `CC(C)NC(=O)c1csc(-c2oc(CN3CCN(c4ccc(Cl)cc4)CC3)nc2-c2ccc(F)cc2)n1` [Example 1274], the 50% inhibitory concentration (IC50) is over 1 µM.

The IC50 is the midpoint of a concentration-inhibition curve. A low value points to inhibition by little substance.
